Laboratory results taken from ChEMBL document CHEMBL1269003, “Design and synthesis of tetrahydropyridothieno[2,3-d]pyrimidine scaffold based epidermal growth factor receptor (EGFR) kinase inhibitors: the role of side chain chirality and Michael acceptor group for maximal potency” (J Med Chem, 2010).
Active and inactive are the calls of the source. The rule behind the calls is not given here.

Columns and labels:
[1] = molecular target: T1, Epidermal growth factor receptor (Homo sapiens, UniProt P00533)
T1 sequence (P00533 whole entry): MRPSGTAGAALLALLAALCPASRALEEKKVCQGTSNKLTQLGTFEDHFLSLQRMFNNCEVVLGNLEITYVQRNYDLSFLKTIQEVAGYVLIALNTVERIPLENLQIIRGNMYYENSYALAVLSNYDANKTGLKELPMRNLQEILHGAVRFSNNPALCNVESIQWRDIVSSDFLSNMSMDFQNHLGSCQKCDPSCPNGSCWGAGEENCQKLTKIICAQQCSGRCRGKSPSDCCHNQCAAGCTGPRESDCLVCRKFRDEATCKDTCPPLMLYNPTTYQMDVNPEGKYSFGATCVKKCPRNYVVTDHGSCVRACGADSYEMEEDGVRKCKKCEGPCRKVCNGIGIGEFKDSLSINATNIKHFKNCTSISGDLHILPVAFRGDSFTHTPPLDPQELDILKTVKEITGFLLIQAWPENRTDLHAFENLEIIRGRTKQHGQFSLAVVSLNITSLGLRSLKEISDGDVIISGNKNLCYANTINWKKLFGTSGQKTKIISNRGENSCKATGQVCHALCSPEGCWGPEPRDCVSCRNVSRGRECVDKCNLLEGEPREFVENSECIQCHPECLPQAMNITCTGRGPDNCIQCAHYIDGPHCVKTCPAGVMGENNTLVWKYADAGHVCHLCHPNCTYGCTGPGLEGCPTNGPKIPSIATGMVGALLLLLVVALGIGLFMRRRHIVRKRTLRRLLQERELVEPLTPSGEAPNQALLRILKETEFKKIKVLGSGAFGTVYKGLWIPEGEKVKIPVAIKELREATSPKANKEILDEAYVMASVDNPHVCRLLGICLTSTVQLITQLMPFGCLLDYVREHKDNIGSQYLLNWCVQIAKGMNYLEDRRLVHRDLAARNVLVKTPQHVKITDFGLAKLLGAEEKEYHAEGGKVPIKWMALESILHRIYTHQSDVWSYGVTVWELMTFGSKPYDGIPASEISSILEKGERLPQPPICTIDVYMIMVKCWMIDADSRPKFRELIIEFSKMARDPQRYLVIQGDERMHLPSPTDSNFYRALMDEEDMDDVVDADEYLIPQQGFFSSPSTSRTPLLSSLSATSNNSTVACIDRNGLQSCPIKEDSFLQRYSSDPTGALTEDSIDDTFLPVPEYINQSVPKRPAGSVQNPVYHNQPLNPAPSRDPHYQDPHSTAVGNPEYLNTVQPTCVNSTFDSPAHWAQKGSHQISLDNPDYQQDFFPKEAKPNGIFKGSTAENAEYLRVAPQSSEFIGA

[2] = test system: Epidermal growth factor receptor (Homo sapiens), P00533 [L858R,T790M]; conditions: 10 uM
Sequence of Epidermal growth factor receptor (Homo sapiens), P00533 [L858R,T790M] (P00533 whole entry T790M/L858R, looked up): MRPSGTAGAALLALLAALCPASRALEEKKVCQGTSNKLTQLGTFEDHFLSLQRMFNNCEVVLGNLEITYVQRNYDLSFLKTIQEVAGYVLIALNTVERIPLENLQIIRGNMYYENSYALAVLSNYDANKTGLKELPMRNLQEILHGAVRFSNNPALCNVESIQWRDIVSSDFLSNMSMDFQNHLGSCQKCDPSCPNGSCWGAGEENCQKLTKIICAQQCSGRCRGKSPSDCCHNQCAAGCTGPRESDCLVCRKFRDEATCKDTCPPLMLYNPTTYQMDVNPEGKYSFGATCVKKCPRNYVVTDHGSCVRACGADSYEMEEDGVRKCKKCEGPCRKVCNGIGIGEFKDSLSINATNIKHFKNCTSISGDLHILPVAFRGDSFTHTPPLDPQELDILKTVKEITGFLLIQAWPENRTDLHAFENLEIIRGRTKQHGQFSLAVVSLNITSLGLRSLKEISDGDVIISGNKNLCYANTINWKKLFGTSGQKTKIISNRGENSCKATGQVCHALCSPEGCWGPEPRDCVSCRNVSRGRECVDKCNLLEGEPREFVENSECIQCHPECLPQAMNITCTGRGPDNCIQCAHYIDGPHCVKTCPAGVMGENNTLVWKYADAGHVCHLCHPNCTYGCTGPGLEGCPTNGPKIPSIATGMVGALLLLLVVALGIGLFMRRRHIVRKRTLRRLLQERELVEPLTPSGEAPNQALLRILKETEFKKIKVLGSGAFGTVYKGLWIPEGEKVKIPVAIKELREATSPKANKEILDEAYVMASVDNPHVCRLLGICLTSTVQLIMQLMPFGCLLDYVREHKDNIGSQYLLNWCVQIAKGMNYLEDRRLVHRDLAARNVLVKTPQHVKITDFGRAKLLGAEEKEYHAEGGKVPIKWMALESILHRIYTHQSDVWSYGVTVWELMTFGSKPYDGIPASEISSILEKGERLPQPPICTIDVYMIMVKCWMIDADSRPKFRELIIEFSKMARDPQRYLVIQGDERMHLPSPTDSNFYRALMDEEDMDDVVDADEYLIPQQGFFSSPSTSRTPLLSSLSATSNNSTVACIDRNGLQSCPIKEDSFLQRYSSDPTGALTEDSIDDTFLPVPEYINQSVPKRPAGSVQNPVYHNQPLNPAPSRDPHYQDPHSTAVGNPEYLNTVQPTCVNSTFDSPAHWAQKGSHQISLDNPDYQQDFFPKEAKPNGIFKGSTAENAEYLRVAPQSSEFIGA

[3] = Antiproliferative activity against human HCC827 cells by MTS assay
[4] = molecular target: T1, Epidermal growth factor receptor; conditions: 20 uM
[5] = molecular target: T1, Epidermal growth factor receptor; assay: Inhibition of EGFR at 20 uM
[6] = molecular target: Epidermal growth factor receptor (Homo sapiens, UniProt P00533, L858R/T790M)
Sequence of Epidermal growth factor receptor (Homo sapiens, UniProt P00533, L858R/T790M) (P00533 25-1210 T790M/L858R limits assumed): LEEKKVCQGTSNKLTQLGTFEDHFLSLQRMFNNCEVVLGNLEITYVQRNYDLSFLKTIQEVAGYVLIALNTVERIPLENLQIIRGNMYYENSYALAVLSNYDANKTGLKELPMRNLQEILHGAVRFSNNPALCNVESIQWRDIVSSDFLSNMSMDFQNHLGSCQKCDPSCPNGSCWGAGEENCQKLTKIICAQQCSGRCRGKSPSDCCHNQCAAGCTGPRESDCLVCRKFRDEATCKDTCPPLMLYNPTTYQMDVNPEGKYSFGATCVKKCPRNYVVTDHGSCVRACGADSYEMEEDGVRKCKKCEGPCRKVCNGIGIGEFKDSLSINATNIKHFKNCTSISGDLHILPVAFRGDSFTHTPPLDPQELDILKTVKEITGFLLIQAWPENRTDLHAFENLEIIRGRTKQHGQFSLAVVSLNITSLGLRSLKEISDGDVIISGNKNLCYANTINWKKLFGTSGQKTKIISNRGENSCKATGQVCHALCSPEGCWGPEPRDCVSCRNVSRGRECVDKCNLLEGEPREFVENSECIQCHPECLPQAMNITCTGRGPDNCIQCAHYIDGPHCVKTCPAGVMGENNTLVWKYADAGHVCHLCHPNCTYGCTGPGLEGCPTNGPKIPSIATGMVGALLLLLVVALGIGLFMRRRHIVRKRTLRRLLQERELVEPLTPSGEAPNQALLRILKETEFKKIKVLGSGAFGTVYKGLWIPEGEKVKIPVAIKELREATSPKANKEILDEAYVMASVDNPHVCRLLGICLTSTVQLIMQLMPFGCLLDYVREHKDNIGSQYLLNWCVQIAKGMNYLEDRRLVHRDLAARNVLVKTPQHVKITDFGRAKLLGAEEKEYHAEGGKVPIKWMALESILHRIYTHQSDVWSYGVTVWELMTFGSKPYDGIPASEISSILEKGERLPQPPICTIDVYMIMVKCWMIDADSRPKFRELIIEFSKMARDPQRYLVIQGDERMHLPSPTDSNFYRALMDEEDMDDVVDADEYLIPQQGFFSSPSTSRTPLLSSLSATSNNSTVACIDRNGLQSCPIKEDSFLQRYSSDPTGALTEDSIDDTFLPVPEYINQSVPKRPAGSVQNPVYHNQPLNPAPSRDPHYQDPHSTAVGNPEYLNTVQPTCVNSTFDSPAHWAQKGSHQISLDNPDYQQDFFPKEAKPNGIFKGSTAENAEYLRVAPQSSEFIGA

[7] = AUC (0 to infinity) in Sprague-Dawley rat at 5 mg/kg, iv; format: ADME, organism-based; set-up: time infinity, dose 5 mg/kg, route intravenous; conditions: plasma
HCC827 [8] = assay: Antitumor activity against human HCC827 cells xenografted in mouse assessed as reduction of tumor growth at 5 to 15 mg/kg, iv for 5 days a week measured after 2 weeks; format: functional, organism-based
Rattus norvegicus = assay: Half life in Sprague-Dawley rat at 5 mg/kg, iv; format: ADME, organism-based; set-up: dose 5 mg/kg, route intravenous; conditions: in vivo
HCC827 [9] = assay: Antitumor activity against human HCC827 cells xenografted in mouse assessed as reduction of tumor growth at 100 mg/kg, iv for 5 days a week measured after 2 weeks; format: functional, organism-based; set-up: dose 100 mg/kg

Work on OC[C@@H](Nc1ncnc2sc3c(c12)CCCC3)c1ccccc1 yielded an IC50 [1] of 720 nM, an inhibition [2] of less than 50% and an IC50 [3] of 198 nM.

Work on c1ccc(CNc2ncnc3sc4c(c23)CCCC4)cc1 yielded an inhibition [2] of less than 50%, an inhibition [4] of 76.9% and an IC50 [3] greater than 10000 nM.

With C=CC(=O)N1CCc2c(sc3ncnc(N[C@@H](CO)c4ccccc4)c23)C1 the IC50 [1] was 3060 nM and the inhibition [2] was less than 50%.

For CN(C)C/C=C/C(=O)N1CCc2c(sc3ncnc(N[C@@H](CO)c4ccccc4)c23)C1, the IC50 [5] was greater than 20000 nM and the inhibition [2] was less than 50%.

For CN(C)C/C=C/C(=O)N1CCc2c(sc3ncnc(NC(CO)Cc4ccccc4)c23)C1 (single isomer, unassigned), the IC50 [1] was 149 nM, the IC50 [6] was 4110 nM and the IC50 [3] was 32 nM.

Work on c1ccc(CCNc2ncnc3sc4c(c23)CCCC4)cc1 yielded an inhibition [4] of 44.3%.

Work on OC[C@@H](Nc1ncnc2sc3c(c12)CCNC3)c1ccccc1 yielded an IC50 [5] greater than 20000 nM and an inhibition [2] of less than 50%.

C=CS(=O)(=O)N1CCc2c(sc3ncnc(N[C@H](CO)c4ccccc4)c23)C1 showed an IC50 [1] of 91 nM, an IC50 [6] of 2480 nM and an IC50 [3] of 273 nM.

For C=CC(=O)N1CCc2c(sc3ncnc(N[C@H](C)c4ccccc4)c23)C1, the IC50 [1] was 20 nM, the IC50 [6] was 739 nM and the IC50 [3] was 19 nM.

OC[C@H](Nc1ncnc2sc3c(c12)CCCC3)c1ccccc1 gave an IC50 [5] greater than 20000 nM.

In the case of Fc1ccc(CNc2ncnc3sc4c(c23)CCCC4)cc1, the inhibition [4] is reported as 52.7%.

Work on CCN(CC)C/C=C/C(=O)N1CCc2c(sc3ncnc(NC(CO)c4ccccc4)c23)C1 (single isomer, unassigned) yielded an IC50 [1] of 9 nM, an IC50 [6] of 930 nM and an IC50 [3] of 8 nM.

Compound C[C@@H](Nc1ncnc2sc3c(c12)CCN(C(=O)/C=C/CN(C)C)C3)c1ccccc1 has an IC50 [1] of 12 nM, an IC50 [6] of 596 nM and an IC50 [3] of 2 nM.

O=C(/C=C/c1ccccc1)N1CCc2c(sc3ncnc(N[C@H](CO)c4ccccc4)c23)C1 gave an IC50 [1] of 3500 nM and an inhibition [2] of less than 50%.

In the case of CC#CC(=O)N1CCc2c(sc3ncnc(N[C@H](CO)c4ccccc4)c23)C1, the IC50 [1] is reported as 1270 nM, the IC50 [6] is reported as greater than 10000 nM and the inhibition [2] is reported as less than 50%.

C=CC(=O)N1CCc2c(sc3ncnc(N[C@H](CO)c4ccccc4)c23)C1 gave an IC50 [1] of 8 nM, an IC50 [6] of 100 nM and an IC50 [3] of 3 nM.

For OC[C@@H](Nc1ncnc2oc(-c3ccccc3)c(-c3ccccc3)c12)c1ccccc1, the IC50 [3] was 518 nM.

In the case of C=CC(=O)N1CCc2c(sc3ncnc(N[C@H](CC)c4ccccc4)c23)C1, the IC50 [1] is reported as 46 nM, the IC50 [6] is reported as 2200 nM and the IC50 [3] is reported as 24 nM.

For COc1ccc(CNc2ncnc3sc4c(c23)CCCC4)cc1, the inhibition [4] was 1.1%.

Compound CN1CCN(C/C=C/C(=O)N2CCc3c(sc4ncnc(N[C@H](CO)c5ccccc5)c34)C2)CC1 has an IC50 [1] of 89 nM, an inhibition [2] of less than 50% and an IC50 [3] of 38 nM.

With CN(C)C/C=C/C(=O)N1CCc2c(sc3ncnc(N[C@H](CO)c4ccccc4)c23)C1 the IC50 [1] was 70 nM, the IC50 [6] was 305 nM and the AUC(0-inf) [7] was 337 ng·h/mL. For the same compound, the Activity (HCC827 [8]) was “Active”, the t1/2 (Rattus norvegicus) was 1.4 h and the IC50 [3] was 2 nM.

CN(C)C/C=C/C(=O)N1CCc2c(sc3ncnc(NCCO)c23)C1 showed an IC50 [1] of 4880 nM and an inhibition [2] of less than 50%.

Compound OC[C@@H](Nc1ncnc2sc3c(c12)CCC3)c1ccccc1 has an IC50 [1] of 1090 nM and an IC50 [3] of 324 nM.

CCC(=O)N1CCc2c(sc3ncnc(N[C@H](CO)c4ccccc4)c23)C1 showed an IC50 [5] greater than 20000 nM and an inhibition [2] of less than 50%.

With COc1cc2ncnc(Nc3ccc(F)c(Cl)c3)c2cc1OCCCN1CCOCC1 the Activity (HCC827 [9]) was “Active”.

For c1ccc(CNc2ncnc3sc4c(c23)CCC4)cc1, the inhibition [4] was 69.1%.

Work on O=C(/C=C/CN1CCOCC1)N1CCc2c(sc3ncnc(NC(CO)c4ccccc4)c23)C1 (single isomer, unassigned) yielded an IC50 [1] of 21 nM, an IC50 [6] of 1400 nM and an IC50 [3] of 4 nM.

For OCCNc1ncnc2sc3c(c12)CCCC3, the IC50 [5] was greater than 20000 nM.

Compound C[C@@H](Nc1ncnc2sc3c(c12)CCCC3)c1ccccc1 has an IC50 [1] greater than 3240 nM.
